Laboratory results taken from PubChem BioAssay AID330 (DTP/NCI, 2004).
“And” between values parts separate entries of the source, which are not always exact repeats. Equal entries are not always repeated. Toxic doses and inconclusive results are not listed.

System: P388 leukemia ip, CD2F1 mice, survival T/C
Test: NCI In Vivo Anticancer Drug Screen. Data for tumor model P388 Leukemia (intraperitoneal) in CD2F1 (CDF1) mice
Details: endpoint: median survival time, higher = longer survival
Method in brief: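 Mice carrying the transplanted tumor received test compound or vehicle. Survival was recorded in each group, and the value is the treated-group measurement divided by that of the vehicle-treated control group.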

[1] = dose: 60.0 mg/kg/injection, schedule: Q01DX005 (ip), vehicle: saline with Tween-80
[2] = dose: 120.0 mg/kg/injection, schedule: Q01DX005 (ip), vehicle: saline with Tween-80
[3] = dose: 240.0 mg/kg/injection, schedule: Q01DX005 (ip), vehicle: saline with Tween-80
[4] = dose: 60.0 mg/kg/injection, schedule: Q01DX005 (ip), vehicle: Klucel (hydroxypropylcellulose) (HPC)
[5] = dose: 120.0 mg/kg/injection, schedule: Q01DX005 (ip), vehicle: Klucel (hydroxypropylcellulose) (HPC)
[6] = dose: 50.0 mg/kg/injection, schedule: Q01DX005 (ip), vehicle: saline with Tween-80
[7] = dose: 100.0 mg/kg/injection, schedule: Q01DX005 (ip), vehicle: saline with Tween-80
[8] = dose: 200.0 mg/kg/injection, schedule: Q01DX005 (ip), vehicle: saline with Tween-80
[9] = dose: 25.0 mg/kg/injection, schedule: Q01DX009 (ip), vehicle: saline with Tween-80
[10] = dose: 50.0 mg/kg/injection, schedule: Q01DX009 (ip), vehicle: Klucel (hydroxypropylcellulose) (HPC)
[11] = dose: 100.0 mg/kg/injection, schedule: Q01DX009 (ip), vehicle: Klucel (hydroxypropylcellulose) (HPC)
[12] = dose: 200.0 mg/kg/injection, schedule: Q01DX009 (ip), vehicle: Klucel (hydroxypropylcellulose) (HPC)
[13] = dose: 50.0 mg/kg/injection, schedule: Q04DX003 (ip), vehicle: Klucel (hydroxypropylcellulose) (HPC)
[14] = dose: 100.0 mg/kg/injection, schedule: Q04DX003 (ip), vehicle: Klucel (hydroxypropylcellulose) (HPC)
[15] = dose: 200.0 mg/kg/injection, schedule: Q04DX003 (ip), vehicle: Klucel (hydroxypropylcellulose) (HPC)
[16] = dose: 240.0 mg/kg/injection, schedule: Q01DX005 (ip), vehicle: Klucel (hydroxypropylcellulose) (HPC)
[17] = dose: 50.0 mg/kg/injection, schedule: Q01DX009 (ip), vehicle: saline with Tween-80
[18] = dose: 100.0 mg/kg/injection, schedule: Q01DX009 (ip), vehicle: saline with Tween-80
[19] = dose: 200.0 mg/kg/injection, schedule: Q01DX009 (ip), vehicle: saline with Tween-80

CCC[C@H]1N=C(OCC)N[C@@H]1CCC
T/C (dose: 6.25 mg/kg/injection, schedule: Q01DX005 (ip), vehicle: Klucel (hydroxypropylcellulose) (HPC)): 108 % of control
T/C (dose: 12.5 mg/kg/injection, schedule: Q01DX005 (ip), vehicle: Klucel (hydroxypropylcellulose) (HPC)): 117 % of control

O=C(c1ccccc1)C1(c2ccccc2)CCN(Cc2ccccc2)CC1
T/C (dose: 100.0 mg/kg/injection, schedule: Q04DX002 (ip), vehicle: saline with Tween-80): 93 % of control
T/C (dose: 200.0 mg/kg/injection, schedule: Q04DX002 (ip), vehicle: saline with Tween-80): 86 % of control
T/C (dose: 400.0 mg/kg/injection, schedule: Q04DX002 (ip), vehicle: saline with Tween-80): 94 % of control

COc1ccc(OC)c(NC(=O)CCCC(=O)CC(=O)c2cccnc2)c1
T/C [1]: 103 % of control
T/C [2]: 103 % of control
T/C [3]: 101 % of control

N#CC(=N)C(C#N)=Nc1c(O)[nH]c2ccccc12
T/C (dose: 6.25 mg/kg/injection, schedule: Q01DX009 (ip), vehicle: DMSO): 100 % of control
T/C (dose: 12.5 mg/kg/injection, schedule: Q01DX009 (ip), vehicle: DMSO): 94 % of control
T/C (dose: 25.0 mg/kg/injection, schedule: Q01DX009 (ip), vehicle: DMSO): 100 % of control
T/C (dose: 50.0 mg/kg/injection, schedule: Q01DX009 (ip), vehicle: DMSO): 108 % of control

C/C(=C(/O)c1ccc(Cl)cc1)c1nc2ccc(Cl)cc2[nH]c1=O
T/C [4]: 96 % of control
T/C [5]: 101 % of control

COCC1(C)CC2CCCCC2CC1(C)O (configuration not stated)
T/C [6]: 93 % of control
T/C [7]: 95 % of control
T/C [8]: 86 % of control

Clc1cccc2nn3ccnc3n12
T/C (dose: 50.0 mg/kg/injection, schedule: Q01DX001 (ip), vehicle: Klucel (hydroxypropylcellulose) (HPC)): 105 % of control
T/C (dose: 100.0 mg/kg/injection, schedule: Q01DX001 (ip), vehicle: Klucel (hydroxypropylcellulose) (HPC)): 99 % of control
T/C (dose: 200.0 mg/kg/injection, schedule: Q01DX001 (ip), vehicle: Klucel (hydroxypropylcellulose) (HPC)): 102 % of control

CCN(CC)P(=O)(N1CC1)N1CC1
T/C (dose: 6.25 mg/kg/injection, schedule: Q01DX009 (ip), vehicle: saline): 169 % of control
T/C (dose: 12.5 mg/kg/injection, schedule: Q01DX009 (ip), vehicle: saline): 243 % of control
T/C (dose: 12.5 mg/kg/injection, schedule: Q04DX003 (ip), vehicle: saline): 175 % of control
T/C (dose: 25.0 mg/kg/injection, schedule: Q01DX009 (ip), vehicle: saline): 86 % of control
T/C (dose: 25.0 mg/kg/injection, schedule: Q04DX003 (ip), vehicle: saline): 245 % of control

COC(=O)C(N)CCCCNc1ccc2c(cc1=O)C(NC(C)=O)CCc1cc(OC)c(OC)c(OC)c1-2 (configuration not stated)
T/C [9]: 119 % of control
T/C (dose: 53.0 mg/kg/injection, schedule: Q01DX009 (ip), vehicle: saline): 117 % of control
T/C (dose: 80.0 mg/kg/injection, schedule: Q01DX009 (ip), vehicle: saline): 117 % of control
T/C (dose: 270.0 mg/kg/injection, schedule: Q01DX009 (ip), vehicle: saline): 150 % of control

c1csc(-c2ccn[nH]2)c1
T/C (dose: 15.0 mg/kg/injection, schedule: Q01DX005 (ip), vehicle: saline with Tween-80): 100 % of control
T/C (dose: 30.0 mg/kg/injection, schedule: Q01DX005 (ip), vehicle: saline with Tween-80): 100 % of control
T/C [1]: 116 % of control and 91 % of control

CC(C)(C)c1cc(C(c2ccccc2)(c2ccccc2)c2ccccc2)cc2c1[O][Sb]([c]1ccccc1)([c]1ccccc1)([c]1ccccc1)[NH]2
T/C [10]: 102 % of control
T/C [11]: 103 % of control
T/C [12]: 116 % of control

C/C(=N\O)c1cc(Br)cc([N+](=O)[O-])c1O
T/C (dose: 50.0 mg/kg/injection, schedule: Q01DX005 (ip), vehicle: Klucel (hydroxypropylcellulose) (HPC)): 100 % of control
T/C (dose: 100.0 mg/kg/injection, schedule: Q01DX005 (ip), vehicle: Klucel (hydroxypropylcellulose) (HPC)): 94 % of control

Cc1nn(C(=O)c2ccncc2)c(C)c1N=Nc1ccc(S(=O)(=O)N=C(N)N)cc1
T/C [10]: 97 % of control
T/C [11]: 95 % of control
T/C [12]: 100 % of control

CC1CC(=O)N1C(=O)CCN=C=S (configuration not stated)
T/C [1]: 111 % of control
T/C [2]: 120 % of control
T/C [3]: 117 % of control

CCN(CC)CCOc1ccc(C(=O)CC(=O)c2c(-c3ccccc3)n(C)c3ccccc23)cc1
T/C (dose: 50.0 mg/kg/injection, schedule: Q01DX001 (ip), vehicle: saline): 101 % of control
T/C (dose: 100.0 mg/kg/injection, schedule: Q01DX001 (ip), vehicle: saline): 94 % of control
T/C (dose: 200.0 mg/kg/injection, schedule: Q01DX001 (ip), vehicle: saline): 91 % of control

O=S(=O)(O)O.[NH-]CC([NH-])c1ccccc1.[Pt+2] (configuration not stated)
T/C (dose: 6.25 mg/kg/injection, schedule: Q04DX002 (ip), vehicle: saline with Tween-80): 184 % of control
T/C (dose: 12.5 mg/kg/injection, schedule: Q04DX002 (ip), vehicle: saline with Tween-80): 88 % of control

S=c1[nH]nc(-c2cnns2)o1
T/C [13]: 103 % of control
T/C [14]: 98 % of control
T/C [15]: 107 % of control

O=[N+]([O-])c1ccc(/C=C/c2cccs2)c([N+](=O)[O-])c1
T/C [10]: 105 % of control
T/C [11]: 94 % of control
T/C [12]: 88 % of control

Cc1nc(NN)nc(N)c1S(=O)(=O)Cc1ccc(Cl)cc1
T/C (dose: 100.0 mg/kg/injection, schedule: Q04DX002 (ip), vehicle: saline): 94 % of control
T/C (dose: 200.0 mg/kg/injection, schedule: Q04DX002 (ip), vehicle: saline): 90 % of control
T/C (dose: 400.0 mg/kg/injection, schedule: Q04DX002 (ip), vehicle: saline): 90 % of control

O=C(O)c1c[nH]c2c(ccc3[nH]cc(C(=O)O)c(=O)c32)c1=O
T/C [4]: 105 % of control
T/C [5]: 102 % of control
T/C [16]: 92 % of control

NN1C(=O)CCC1=O
T/C [17]: 94 % of control
T/C [18]: 97 % of control
T/C [19]: 92 % of control

CCC1CN2CCc3cc(OC)c(OC)cc3C2CC1(O)C#N (configuration not stated)
T/C [11]: 99 % of control
T/C [12]: 102 % of control

COC(=O)/C(C)=C\n1ccccc1=O
T/C (dose: 60.0 mg/kg/injection, schedule: Q01DX005 (ip), vehicle: saline): 97 % of control
T/C (dose: 120.0 mg/kg/injection, schedule: Q01DX005 (ip), vehicle: saline): 99 % of control
T/C (dose: 240.0 mg/kg/injection, schedule: Q01DX005 (ip), vehicle: saline): 98 % of control

N=C(N)c1nn[nH]n1
T/C (dose: 12.5 mg/kg/injection, schedule: Q04DX003 (ip), vehicle: Klucel (hydroxypropylcellulose) (HPC)): 100 % of control
T/C (dose: 25.0 mg/kg/injection, schedule: Q04DX003 (ip), vehicle: Klucel (hydroxypropylcellulose) (HPC)): 100 % of control
T/C [13]: 97 % of control
T/C [14]: 103 % of control
T/C [15]: 100 % of control

CCC1(c2ccc(C)cc2)C(=O)NCNC1=O
T/C [4]: 102 % of control
T/C [5]: 102 % of control
T/C [16]: 100 % of control

Cc1cccc(Oc2cnc(=O)[nH]c2)c1
T/C [17]: 100 % of control
T/C [18]: 93 % of control
T/C [19]: 99 % of control

CC(=O)OC1C=CN(C(C)=O)C(SC(C)(C)C)C1(C)O (configuration not stated)
T/C [10]: 101 % of control and 119 % of control
T/C [11]: 107 % of control and 112 % of control
T/C [12]: 113 % of control and 120 % of control
T/C (dose: 400.0 mg/kg/injection, schedule: Q01DX009 (ip), vehicle: Klucel (hydroxypropylcellulose) (HPC)): 110 % of control

COC1OC2COC(c3ccccc3)OC2C(O)C1N (configuration not stated)
T/C [9]: 112 % of control
T/C (dose: 25.0 mg/kg/injection, schedule: Q04DX003 (ip), vehicle: saline with Tween-80): 100 % of control
T/C [17]: 95 % of control
T/C (dose: 50.0 mg/kg/injection, schedule: Q04DX003 (ip), vehicle: saline with Tween-80): 100 % of control
T/C [18]: 104 % of control
T/C (dose: 100.0 mg/kg/injection, schedule: Q04DX003 (ip), vehicle: saline with Tween-80): 100 % of control

FC(F)(F)c1cccc(-n2nnnc2Oc2ccc(-c3ccccc3)cc2)c1
T/C [6]: 97 % of control
T/C [7]: 101 % of control
T/C [8]: 90 % of control
